Where two headings read alike, the source gives them in different places.
System: Methanococcus maripaludis
Assay: Inhibition of methane production by Methanococcus maripaludis culture (pressure drop after 24 h)
Assay type: cell-based
Details: for Fold increase of Compound X combined with bromoform as compared to Compound X alone: bromoform 0.12 μM; for inhibition at 25 µM: Compound X 25 μM alone; for inhibition at 100 µM: Compound X 100 μM alone
Method: For this experiment, bromoform was prepped at 100 mM by adding 8.75 μl bromoform to 991 μl DMSO. This was diluted 10× to generate a 10 mM solution and further diluted to generate 0.12 mM stock solutions. Compound X stock solutions were prepared in DMSO (except for tannic acid, which was diluted in deionized water), to achieve the desired stock solutions required for testing. The experiment was set up by adding 5 ml of M141 medium (https://www.dsmz.de/microorganisms/medium/pdf/DSMZ_Medium141.pdf) to a screw cap Hungate tube followed by the addition of 5 μl Compound X and/or 5 μl bromoform or 5/10 μl DMSO as follows: • Tube 1: DMSO (10 μl) • Tube 2: Bromoform (5 μl, 0.120 mM) (120 nM final)+5 μl DMSO • Tube 3: Compound X (5 μl stock solution)+5 μl DMSO • Tube 4: Bromoform (5 μl 0.120 mM) (120 nM final)+Compound X (5 μl stock solution)
The concentration of Bromoform was fixed at 0.12 μM.
After the addition of the test substances, 500 μl of an overnight M. maripaludis culture was added to each reaction tube. Each tube was gassed with 80% H2/20% CO2 to 240 kPa and incubated at 37° C. for 24 h.
After the 24 h incubation the pressure inside the tube was measured using a manometer. Given that 5 moles of H2/CO2 are consumed to generate 1 mole of CH4 the drop in pressure observed was used to calculate the amount of methane by the control and test reactions from which a percent inhibition was calculated.
Table 1 below summarises the range of concentrations and the fold increase in inhibition of Compound X when tested with bromoform relative to the level of inhibition for Compound X when tested alone.

[1] = Compound X 25 μM + bromoform 0.12 μM, 24 h
[2] = Methanococcus maripaludis, 24 h, read-out: Methane inhibition of Compound X as a sole compound (%)
[3] = Compound X 500 μM + bromoform 0.12 μM, 24 h
[4] = Compound X 1 mM + bromoform 0.12 μM, 24 h
[5] = Compound X 100 μM + bromoform 0.12 μM, 24 h

O=[N+]([O-])OCCCO [3-Nitrooxypropanol]
Methane inhibition in combination with Bromoform (%) (Compound X 0.78 μM-1.56 μM (range tested) + bromoform 0.12 μM, 24 h): 91.3% | Fold increase of Compound X combined with bromoform as compared to Compound X alone (Compound X 0.78 μM-1.56 μM (range tested)): 91.3 fold | inhibition (Methanococcus maripaludis, Compound X 0.78 μM-1.56 μM (range tested) alone, 24 h, read-out: Methane inhibition of Compound X as a sole compound (%)): 1%

CC(C)=CCc1c(O)cc(O)c2c1O[C@H](c1ccc(O)cc1)CC2=O [8-prenylnaringenin]
Methane inhibition in combination with Bromoform (%) (Compound X 12.5 μM + bromoform 0.12 μM, 24 h): 97.2% | Fold increase of Compound X combined with bromoform as compared to Compound X alone (Compound X 12.5 μM): 1.27 fold | inhibition at 12.5 µM (Methanococcus maripaludis, Compound X 12.5 μM alone, 24 h, read-out: Methane inhibition of Compound X as a sole compound (%)): 76.4%

CC(C)=CCc1cc2c(cc1O)O[C@H](c1ccc(O)cc1)CC2=O [Bavachin]
Methane inhibition in combination with Bromoform (%) [1]: 57.4% | Fold increase of Compound X combined with bromoform as compared to Compound X alone (Compound X 25 μM): 57.4 fold | inhibition at 25 µM [2]: 1%

Cc1ccc(C(C)C)cc1O [Carvacrol]
Methane inhibition in combination with Bromoform (%) [3]: 79.6% | Fold increase of Compound X combined with bromoform as compared to Compound X alone (Compound X 500 μM): 1.14 fold | inhibition at 500 µM [2]: 69.6%

O=CC=Cc1ccccc1 [Cinnamaldehyde]
Methane inhibition in combination with Bromoform (%) [4]: 91.7% | Fold increase of Compound X combined with bromoform as compared to Compound X alone (Compound X 1 mM): 91.7 fold | inhibition at 1000 µM (Methanococcus maripaludis, Compound X 1 mM alone, 24 h, read-out: Methane inhibition of Compound X as a sole compound (%)): 1%

CC(C)=CCCC(C)=CC=O [Citral]
Methane inhibition in combination with Bromoform (%) [3]: 96.7% | Fold increase of Compound X combined with bromoform as compared to Compound X alone (Compound X 500 μM): 7.29 fold | inhibition at 500 µM (Methanococcus maripaludis, Compound X 500 μM alone, 24 h, read-out: Methane inhibition of Compound X as a sole compound (%)): 13.3%

CC(C)=CCC/C(C)=C/Cc1cc(-c2coc3cc(O)ccc3c2=O)ccc1O [Corylifol A]
Methane inhibition in combination with Bromoform (%) (Compound X 3.125 μM + bromoform 0.12 μM, 24 h): 96.1% | Methane inhibition of Compound X as a sole compound (%) (Compound X 3.125 μM alone, 24 h): 1% | Fold increase of Compound X combined with bromoform as compared to Compound X alone (Compound X 3.125 μM): 96.1 fold

O=C(O)C(Br)Br [Dibromoacetic acid]
Methane inhibition in combination with Bromoform (%) (Compound X 200 μM + bromoform 0.12 μM, 24 h): 88.1% | Fold increase of Compound X combined with bromoform as compared to Compound X alone (Compound X 200 μM): 88.1 fold | inhibition at 200 µM [2]: 1%

ClC(Br)Br [Dibromochloromethane]
Methane inhibition in combination with Bromoform (%) (Compound X 0.195 μM + bromoform 0.12 μM, 24 h): 92.2% | Fold increase of Compound X combined with bromoform as compared to Compound X alone (Compound X 0.195 μM): 92.2 fold | inhibition at 0.195 µM [2]: 1%

CSSC [Dimethyl disulfide]
Methane inhibition in combination with Bromoform (%) [4]: 43.5% | Fold increase of Compound X combined with bromoform as compared to Compound X alone (Compound X 1 mM): 43.5 fold | inhibition at 1000 µM [2]: 1%

CC(C)=CCC[C@](C)(O[C@@H]1O[C@H](CO[C@@H]2OC[C@H](O)[C@H](O)[C@H]2O)[C@@H](O)[C@H](O)[C@H]1O)[C@H]1CC[C@]2(C)[C@@H]1[C@H](O)C[C@@H]1[C@@]3(C)CC[C@H](O[C@@H]4O[C@H](CO)[C@@H](O)[C@H](O)[C@H]4O[C@@H]4O[C@H](CO)[C@@H](O)[C@H](O)[C@H]4O)C(C)(C)[C@@H]3CC[C@]12C [Ginsenoside Rb2]
Methane inhibition in combination with Bromoform (%) (Compound X 20 μM + bromoform 0.12 μM, 24 h): 66.9% | Methane inhibition of Compound X as a sole compound (%) (Compound X 20 μM alone, 24 h): 44.7% | Fold increase of Compound X combined with bromoform as compared to Compound X alone (Compound X 20 μM): 1.42 fold

CC(C)=CCc1c(O)ccc(C(=O)/C=C/c2ccc(O)cc2)c1O [Isobavachalcone]
Methane inhibition in combination with Bromoform (%) (Compound X 3.125 μM-6.25 μM (range tested) + bromoform 0.12 μM, 24 h): 93.4% | Fold increase of Compound X combined with bromoform as compared to Compound X alone (Compound X 3.125 μM-6.25 μM (range tested)): 1.12 fold | inhibition (Methanococcus maripaludis, Compound X 3.125 μM-6.25 μM (range tested) alone, 24 h, read-out: Methane inhibition of Compound X as a sole compound (%)): 83.4%

CC(C)=CCc1c(-c2ccc(O)cc2O)oc2c3c(cc(O)c2c1=O)OC(C)(C)C=C3 [Morusin]
Methane inhibition in combination with Bromoform (%) (Compound X 1.25 μM-10 μM (range tested) + bromoform 0.12 μM, 24 h): 96.7% | Fold increase of Compound X combined with bromoform as compared to Compound X alone (Compound X 1.25 μM-10 μM (range tested)): 2.16 fold

O=c1c(O)c(-c2ccc(O)c(O)c2)oc2cc(O)cc(O)c12 [Quercetin]
Methane inhibition in combination with Bromoform (%) (Compound X 50 μM-100 μM (range tested) + bromoform 0.12 μM, 24 h): 91.2% | Fold increase of Compound X combined with bromoform as compared to Compound X alone (Compound X 50 μM-100 μM (range tested)): 1.21 fold

C[C@H]1O[C@@H](O[C@H]2CC[C@@]3(C)[C@@H](CC[C@]4(C)[C@@H]3C=CC3=C5CC(C)(C)CC[C@]5(CO)[C@H](O)C[C@]34C)[C@]2(C)CO)[C@H](O)[C@@H](O[C@@H]2O[C@H](CO)[C@@H](O)[C@H](O)[C@H]2O)[C@H]1O [Saikosaponin b2]
Methane inhibition in combination with Bromoform (%) (Compound X 10 μM + bromoform 0.12 μM, 24 h): 55.6% | Methane inhibition of Compound X as a sole compound (%) (Compound X 10 μM alone, 24 h): 1% | Fold increase of Compound X combined with bromoform as compared to Compound X alone (Compound X 10 μM): 55.6 fold

C=C[C@](C)(O)CC[C@@H]1[C@@]2(C)CCCC(C)(C)[C@@H]2CC[C@@]1(C)O [Sclareol]
Methane inhibition in combination with Bromoform (%) [1]: 61.2% | Fold increase of Compound X combined with bromoform as compared to Compound X alone (Compound X 25 μM): 56 fold | inhibition at 25 µM [2]: 1.1%

O=C(OC[C@H]1O[C@@H](OC(=O)c2cc(O)c(O)c(OC(=O)c3cc(O)c(O)c(O)c3)c2)[C@H](OC(=O)c2cc(O)c(O)c(OC(=O)c3cc(O)c(O)c(O)c3)c2)[C@@H](OC(=O)c2cc(O)c(O)c(OC(=O)c3cc(O)c(O)c(O)c3)c2)[C@@H]1OC(=O)c1cc(O)c(O)c(OC(=O)c2cc(O)c(O)c(O)c2)c1)c1cc(O)c(O)c(OC(=O)c2cc(O)c(O)c(O)c2)c1 [Tannic acid]
Methane inhibition in combination with Bromoform (%) [5]: 56.1% | Fold increase of Compound X combined with bromoform as compared to Compound X alone (Compound X 100 μM): 1.16 fold | inhibition at 100 µM [2]: 48.3%

C[C@H]1[C@H](C)CC[C@]2(C(=O)O)CC[C@]3(C)C(=CC[C@@H]4[C@@]5(C)CC[C@H](O)C(C)(C)[C@@H]5CC[C@]43C)[C@H]12 [Ursolic Acid]
Methane inhibition in combination with Bromoform (%) [5]: 85.2% | Fold increase of Compound X combined with bromoform as compared to Compound X alone (Compound X 100 μM): 85.2 fold | inhibition at 100 µM [2]: 1%

COc1cc(O)c(CC=C(C)C)c(O)c1C(=O)/C=C/c1ccc(O)cc1 [Xanthohumol]
Methane inhibition in combination with Bromoform (%) (Compound X 6.25 μM-12.5 μM (range tested) + bromoform 0.12 μM, 24 h): 95.1% | Fold increase of Compound X combined with bromoform as compared to Compound X alone (Compound X 6.25 μM-12.5 μM (range tested)): 1.5 fold | inhibition (Methanococcus maripaludis, Compound X 6.25 μM-12.5 μM (range tested) alone, 24 h, read-out: Methane inhibition of Compound X as a sole compound (%)): 63.6%

Bavachinin
Methane inhibition in combination with Bromoform (%) (Compound X 12.5 μM-100 μM (range tested) + bromoform 0.12 μM, 24 h): 97.2% | Methane inhibition of Compound X as a sole compound (%) (Compound X 12.5 μM-100 μM (range tested) alone, 24 h): 43% | Fold increase of Compound X combined with bromoform as compared to Compound X alone (Compound X 12.5 μM-100 μM (range tested)): 2.26 fold
